Measurements from patent US8741899B2, “(4-chloro-2-fluoro-N-(2-fluorophenyl)-5-[(8aR)-hexahydropyrrolo-[1,2-a]pyrazin-2(1H)-ylcarbonyl]-benzenesulfonamide, and pharmaceutically acceptable salts thereof” (AbbVie Inc., priority 2009, dated 2014).

Experiments:
Human Cav3.2 Channels = molecular target: T1, Human Cav3.2 Channels (Homo sapiens, UniProt O95180); assay: Electrophysiologic (whole-cell patch-clamp) assessment of calcium channel activity in HEK293 cells stably expressing hCav3.2; type: cell-based; conditions: −77 mV, geometric mean, read-out: Human Cav3.2 −77 mV IC50 (μM) GeoMean
T1 construct: expressed in transfected cells
In short: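 HEK293 cells stably expressing hCav3.2, whole-cell patch clamp; external 5 mM CaCl2 with CsCl/TEA-Cl, pH 7.2; Cs-based internal with 4 mM Mg2ATP. Two-pulse protocol: 8 s prepulse at −100 mV or ~−75 mV, then test pulse to −30 mV. Cumulative antagonist additions, 5 min each; responses normalized to DMSO vehicle.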

Sprague Dawley rats = assay: Capsaicin induced secondary mechanical hyperalgesia model; type: in vivo; conditions: rat, 60 minutes before testing, secondary mechanical hyperalgesia 180 minutes after capsaicin, von Frey filaments
Experimental: (ii) In Vivo Data—Capsaicin Induced Secondary Mechanical Hyperalgesia Model:
Sprague Dawley rats were briefly restrained, and capsaicin was administered at 10 μg in 10 μL of vehicle by intraplantar injection into the center of the right hind paw. Secondary mechanical hyperalgesia (SMH) was measured at the heel away from the site of injection 180 minutes following capsaicin exposure. Compounds and gabapentin (positive control), were administered p.o. 60 minutes before testing (2 hours after capsaicin) or i.p. 30 minutes before testing (2.5 hours after capsaicin). SMH was measured using calibrated von Frey filaments (Stoelting, Woodale, Ill.). Following the 1 hour habituation in the testing room, rats were moved to individual plexiglass chambers that sit on top of a wire mesh to allow for access for stimulation of the plantar surface of the hind paws. Rats were allowed to acclimate to the new chambers for 15 minutes before the onset of testing. The paw withdrawal threshold was determined by increasing and decreasing stimulus intensity (force: g) and calculated using Dixon's up-down method (Chaplan, S. R.; Bach, F. W.; Pogrel, J. W.; Chung, J. M.; Yaksh, T. L.; Quantitative assessment of tactile allodynia in the rat paw. J. Neuroscience Methods 1994, 53(1), 55-63). The filaments (maximum force of 15.0 g) were held in place for 8 seconds or until there was a withdrawal response from the mechanical stimulation.

T1 sequence (O95180 whole entry): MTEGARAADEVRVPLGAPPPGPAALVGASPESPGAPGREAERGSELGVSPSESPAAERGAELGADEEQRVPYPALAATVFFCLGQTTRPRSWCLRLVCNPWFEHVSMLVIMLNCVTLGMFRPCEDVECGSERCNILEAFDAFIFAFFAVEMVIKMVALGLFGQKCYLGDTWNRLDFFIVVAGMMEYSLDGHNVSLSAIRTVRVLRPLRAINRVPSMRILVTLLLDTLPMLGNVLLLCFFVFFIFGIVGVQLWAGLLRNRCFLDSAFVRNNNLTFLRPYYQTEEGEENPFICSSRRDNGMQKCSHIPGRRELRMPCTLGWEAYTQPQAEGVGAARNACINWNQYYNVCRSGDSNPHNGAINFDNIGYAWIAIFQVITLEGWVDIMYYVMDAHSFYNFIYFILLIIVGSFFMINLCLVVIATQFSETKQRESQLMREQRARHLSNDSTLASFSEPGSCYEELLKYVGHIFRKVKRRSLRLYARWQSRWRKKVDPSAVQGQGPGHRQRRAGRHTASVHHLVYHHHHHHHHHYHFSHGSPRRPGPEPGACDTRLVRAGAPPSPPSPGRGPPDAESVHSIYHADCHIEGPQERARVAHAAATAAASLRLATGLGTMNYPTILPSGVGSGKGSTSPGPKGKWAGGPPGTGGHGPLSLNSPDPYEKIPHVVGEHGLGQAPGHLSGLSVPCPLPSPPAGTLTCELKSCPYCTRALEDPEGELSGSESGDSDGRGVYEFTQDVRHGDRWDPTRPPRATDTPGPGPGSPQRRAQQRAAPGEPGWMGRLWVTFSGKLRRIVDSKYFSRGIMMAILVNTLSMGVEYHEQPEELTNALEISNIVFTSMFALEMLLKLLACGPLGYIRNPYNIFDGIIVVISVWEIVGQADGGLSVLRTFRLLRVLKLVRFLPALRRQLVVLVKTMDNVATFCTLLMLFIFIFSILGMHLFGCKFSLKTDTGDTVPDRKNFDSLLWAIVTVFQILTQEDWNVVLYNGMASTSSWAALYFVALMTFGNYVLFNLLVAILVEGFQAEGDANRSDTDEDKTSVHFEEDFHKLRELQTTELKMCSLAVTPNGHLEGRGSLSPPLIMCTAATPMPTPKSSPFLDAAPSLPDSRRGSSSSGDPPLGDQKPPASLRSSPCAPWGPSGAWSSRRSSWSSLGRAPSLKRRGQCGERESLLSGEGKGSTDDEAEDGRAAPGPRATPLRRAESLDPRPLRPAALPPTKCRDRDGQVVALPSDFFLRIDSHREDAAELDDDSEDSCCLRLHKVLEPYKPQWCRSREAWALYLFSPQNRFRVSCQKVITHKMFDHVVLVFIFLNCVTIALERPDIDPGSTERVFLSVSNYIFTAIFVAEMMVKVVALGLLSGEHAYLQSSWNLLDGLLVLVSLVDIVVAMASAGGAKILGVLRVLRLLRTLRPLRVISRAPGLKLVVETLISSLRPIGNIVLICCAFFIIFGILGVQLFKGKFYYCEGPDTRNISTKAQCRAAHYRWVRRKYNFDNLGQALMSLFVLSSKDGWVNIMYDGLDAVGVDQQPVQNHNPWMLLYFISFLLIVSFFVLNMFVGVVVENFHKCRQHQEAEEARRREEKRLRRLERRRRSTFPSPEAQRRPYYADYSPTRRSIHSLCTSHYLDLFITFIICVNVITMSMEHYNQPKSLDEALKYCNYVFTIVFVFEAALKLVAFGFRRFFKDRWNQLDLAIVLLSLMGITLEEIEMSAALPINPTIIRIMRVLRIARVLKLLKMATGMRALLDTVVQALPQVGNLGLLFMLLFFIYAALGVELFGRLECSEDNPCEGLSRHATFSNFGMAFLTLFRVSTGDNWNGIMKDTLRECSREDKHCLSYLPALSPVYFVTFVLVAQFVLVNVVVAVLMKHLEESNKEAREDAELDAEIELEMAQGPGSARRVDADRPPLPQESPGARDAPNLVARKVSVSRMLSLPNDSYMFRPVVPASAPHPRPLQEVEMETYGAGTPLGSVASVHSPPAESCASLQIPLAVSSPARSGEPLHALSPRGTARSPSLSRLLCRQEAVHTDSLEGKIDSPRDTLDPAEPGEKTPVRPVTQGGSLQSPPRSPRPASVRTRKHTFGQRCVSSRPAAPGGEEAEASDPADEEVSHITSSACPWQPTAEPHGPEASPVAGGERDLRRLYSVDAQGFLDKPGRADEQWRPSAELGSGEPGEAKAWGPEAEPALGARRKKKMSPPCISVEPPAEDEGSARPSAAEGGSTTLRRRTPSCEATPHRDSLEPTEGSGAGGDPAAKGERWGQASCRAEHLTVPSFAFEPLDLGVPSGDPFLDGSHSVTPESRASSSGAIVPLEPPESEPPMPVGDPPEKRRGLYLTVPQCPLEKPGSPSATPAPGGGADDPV

| IC50 (Human Cav3.2 Channels) | Structure (SMILES) | Inhibition to Pain Response, % inhibition @ 30 mg/kg p.o. (Sprague Dawley rats) |
| --- | --- | --- |
| 1.1 µM | O=C(c1cccc(S(=O)(=O)Nc2ccc(C(F)(F)F)cc2)c1)N1CCN2CCCCC2C1 (stereo not drawn) [Example 37, 3-(octahydro-2H-pyrido[1,2-a]pyrazin-2-ylcarbonyl)-N-[4-(trifluoromethyl)phenyl]benzenesulfonamide] | 63% |
| 5.9 µM | O=C(c1cccc(S(=O)(=O)Nc2cccc(F)c2)c1)N1CCN2CCC[C@H]2C1 [Example 3, N-(3-fluorophenyl)-3-[(8aS)-hexahydropyrrolo[1,2-a]pyrazin-2(1H)-ylcarbonyl]benzenesulfonamide] | 44% |
| 10.6 µM | O=C(c1cccc(S(=O)(=O)Nc2ccccc2F)c1)N1CCN2CCC[C@@H]2C1 [Example 2, N-(2-fluorophenyl)-3-[(8aR)-hexahydropyrrolo[1,2-a]pyrazin-2(1H)-ylcarbonyl]benzenesulfonamide] | 58% |

The next lines start with the compound.

| Structure (SMILES) | IC50 (Human Cav3.2 Channels) | Inhibition to Pain Response, % inhibition @ 30 mg/kg p.o. (Sprague Dawley rats) |
| --- | --- | --- |
| O=C(c1cc(S(=O)(=O)Nc2ccccc2F)c(F)cc1Cl)N1CCN2CCC[C@@H]2C1 [Example 20, 4-chloro-2-fluoro-N-(2-fluorophenyl)-5-[(8aR)-hexahydropyrrolo[1,2-a]pyrazin-2(1H)-ylcarbonyl]benzenesulfonamide] | 6 µM | 43% |
| O=C(c1cccc(S(=O)(=O)Nc2c(F)cccc2F)c1)N1CCN2CCC[C@@H]2C1 [Example 13, N-(2,6-difluorophenyl)-3-[(8aR)-hexahydropyrrolo[1,2-a]pyrazin-2(1H)-ylcarbonyl]benzenesulfonamide] | 5.6 µM | 37% |
| O=C(c1cc(S(=O)(=O)Nc2ccccc2F)c(Cl)cc1Cl)N1CCN2CCC[C@@H]2C1 [Example 64, 2,4-dichloro-N-(2-fluorophenyl)-5-[(8aR)-hexahydropyrrolo[1,2-a]pyrazin-2(1H)-ylcarbonyl]benzenesulfonamide] | 1.7 µM | 57% |
